Values of other authors in patent US20230107398A1, “IMMEDIATE RELEASE FORMULATIONS OF d-LYSERGIC ACID DI[…] THERAPEUTIC APPLICATIONS” (Mind Medicine, Inc., priority 2021, published 2023).

Conditions: room temperature

CCN(CC)C(=O)[C@@H]1C=C2c3cccc4[nH]cc(c34)C[C@H]2N(C)C1 [LSD, 9,10-didehydro-N,N-diethyl-6-methylergoline-8β-carboxamide]
Stability in oral solution: not stable
